Tests used:
[1] = test system: Lactococcus lactis CNRZ 117; experiment: Bioactivity assay, solid agar medium test (zones of inhibition); assay type: cell-based; settings: for zone of inhibition, both modified peptides together: prepared in vitro: HalA1-Xa/HalA2-Xa modified by HalM1/HalM2, leader removed by Factor Xa, both peptides applied
Protocol: Bioactivity Assay. The inhibitory activity of haloduracin isolated from the producing strain and prepared in vitro was assayed using the solid agar medium test. Liquid molten GM17 agar (4% M17, 0.5% glucose, 1.5% agar) was cooled to 50° C. and seeded with an overnight culture of the indicator strain Lactococcus lactis CNRZ 117. After agar solidification in a Petri dish, samples were applied to a small well created in the medium. Assay samples were typically concentrated to dryness using a speed vac and rehydrated in a small volume (5-15 μL) of sterile water for application purposes. The cell-free solution isolated from B. halodurans C-125 was applied directly to the plate without further concentration. Plates were incubated overnight at room temperature and zones of inhibition were observed the next day.

[2] = Ltn1 and Ltn2 acting in synergy in a 1:1 ratio; cited from earlier work

## Hal1: mature haloduracin alpha peptide from HalA1, SEQ ID NO:5; three dehydrations and one disulfide
[1]; peptides isolated from B. halodurans, reduced and alkylated with iodoacetamide (Hal1 two adducts, Hal2 zero adducts), excess IAA removed
  zones of growth inhibition / antimicrobial activity after iodoacetamide modification: did not abolish antimicrobial activity

## haloduracin: two-component lantibiotic of Bacillus halodurans C-125 composed of the modified peptides Hal1 (SEQ ID NO:5) and Hal2 (SEQ ID NO:6)
[1]; cell-free supernatant isolated from producer strain B. halodurans C-125, applied to indicator strain
  zone of growth inhibition: a zone of growth inhibition was produced
[1]
  zone of inhibition, both modified peptides together: comparable to the bactericidal effects exhibited by the peptides isolated from the producer strain
[1]; listed as haloduracin peptides prepared in vitro
  zone of inhibition, both modified peptides together: zone of inhibition comparable to that produced by Hal1 and Hal2 isolated from B. halodurans

## lacticin 3147
[2]
  antibacterial activity: nanomolar antibacterial activity
